From the NIST ThermoML archive (doi:10.1016/j.jct.2019.03.035)

Assay: refractive index (other wavelength) (dimensionless); xn = mol fraction of the nth substance listed
Details: 288.62 K, 100 kPa, Liquid, Wavelength=632.8 nm, minimum deviation angle technique

N#Cc1ccccc1 [benzonitrile] + CCCCCCCCCC
Details | refractive index
x1 = 0.112 | 1.4196
x1 = 0.188 | 1.4249
x1 = 0.34 | 1.4371
x1 = 0.396 | 1.4422
x1 = 0.49 | 1.4514
x1 = 0.608 | 1.4647
x1 = 0.702 | 1.4771
x1 = 0.821 | 1.4952
x1 = 0.912 | 1.5105
x1 = 1 | 1.5277
